Data from patent US10761087B2, “Choroidal neovascularization suppressor or drusen formation suppressor, and method for assessing or screening for same” (Link Genomics, Inc., priority 2015, dated 2020).

Columns and labels:
Format in all cases: in vivo
Vimentin = assay: Mouse laser irradiation model: EMT assessment, Vimentin staining; conditions: 25 mg/kg orally once a day for three weeks
Protocol: It is known that laser irradiation of a mouse ocular fundus induces choroidal angiogenesis and EMT (Reference document: Ishikawa, et al, Exp Eye Res. 2016 January; 142:19.25). So, zaltoprofen was assessed for the suppressive effect of CNV and EMT by using a mouse laser irradiation model. A zaltoprofen suspension was prepared by stirring 0.15 g of zaltoprofen (available from TOKYO CHEMICAL […] CO., LTD.) and 0.75 g of gum arabic (available from Wako Pure Chemical Industries, Ltd.) in 60 mL of water. A medium (Vehicle) was prepared by dissolving and stirring 0.75 g of gum arabic in 60 mL of water. Then, an ocular fundus of a C57BL/6J mouse (8-week old, N=13) was laser-irradiated at four points for each eye under a slit lump using a multi-color laser light coagulator. From directly after irradiation, a vehicle or a zaltoprofen solution (25 mg/kg) was orally administered once a day for three weeks, and the following assessments were conducted. For (1) and (3), the same individual was used. After three weeks from laser irradiation, mice were euthanatized by cervical dislocation, and eyeballs were extracted, and dipped and fixed in 4% paraformaldehyde phosphate buffer (available from Wako Pure Chemical Industries, Ltd.). […]

C57BL/6J mouse = assay: Mouse laser irradiation model: CNV assessment by fluorescent fundus photograph; conditions: 25 mg/kg orally once a day, versus Vehicle administration group
Protocol: It is known that laser irradiation of a mouse ocular fundus induces choroidal angiogenesis and EMT (Reference document: Ishikawa, et al, Exp Eye Res. 2016 January; 142:19.25). So, zaltoprofen was assessed for the suppressive effect of CNV and EMT by using a mouse laser irradiation model. A zaltoprofen suspension was prepared by stirring 0.15 g of zaltoprofen (available from TOKYO CHEMICAL […] CO., LTD.) and 0.75 g of gum arabic (available from Wako Pure Chemical Industries, Ltd.) in 60 mL of water. A medium (Vehicle) was prepared by dissolving and stirring 0.75 g of gum arabic in 60 mL of water. Then, an ocular fundus of a C57BL/6J mouse (8-week old, N=13) was laser-irradiated at four points for each eye under a slit lump using a multi-color laser light coagulator. From directly after irradiation, a vehicle or a zaltoprofen solution (25 mg/kg) was orally administered once a day for three weeks, and the following assessments were conducted. For (1) and (3), the same individual was used. After two weeks from laser irradiation, Fluorescite Injection 500 mg (Alcon Japan Ltd.) was administered (1 mL/kg) from the caudal vein, after about 1 minute from the administration, and a fluorescent fundus photograph was taken. Four points for each eye from the taken fluorescent fundus photograph were scored on the basis of the following assessment criteria. [Assessment Criteria] [table]

Collagen Type 1 = assay: Mouse laser irradiation model: EMT assessment, Collagen Type 1 staining; conditions: 25 mg/kg orally once a day for three weeks
Protocol: It is known that laser irradiation of a mouse ocular fundus induces choroidal angiogenesis and EMT (Reference document: Ishikawa, et al, Exp Eye Res. 2016 January; 142:19.25). So, zaltoprofen was assessed for the suppressive effect of CNV and EMT by using a mouse laser irradiation model. A zaltoprofen suspension was prepared by stirring 0.15 g of zaltoprofen (available from TOKYO CHEMICAL […] CO., LTD.) and 0.75 g of gum arabic (available from Wako Pure Chemical Industries, Ltd.) in 60 mL of water. A medium (Vehicle) was prepared by dissolving and stirring 0.75 g of gum arabic in 60 mL of water. Then, an ocular fundus of a C57BL/6J mouse (8-week old, N=13) was laser-irradiated at four points for each eye under a slit lump using a multi-color laser light coagulator. From directly after irradiation, a vehicle or a zaltoprofen solution (25 mg/kg) was orally administered once a day for three weeks, and the following assessments were conducted. For (1) and (3), the same individual was used. After three weeks from laser irradiation, mice were euthanatized by cervical dislocation, and eyeballs were extracted, and dipped and fixed in 4% paraformaldehyde phosphate buffer (Wako Pure Chemical Industries, Ltd.). […] The specimen was subjected to photography of a stained image by the anti-Collagen Type 1 antibody under a microscope, and then quantitatively assessed.

## CC(C(=O)O)c1ccc2c(c1)CC(=O)c1ccccc1S2 (stereo not drawn) [Zaltoprofen, zaltoprofen]
Vimentin
  EMT in the laser irradiation model: suppresses EMT
Vimentin; versus Vehicle administration group
  Vimentin positive area: reduced
C57BL/6J mouse; FIG. 22
  CNV by laser irradiation (fluorescent fundus photographs): significantly suppressed
C57BL/6J mouse; two weeks after laser irradiation
  CNV score by laser irradiation: significantly lower
Collagen Type 1
  EMT suppressive effect (Collagen Type 1 assessment): significant suppressive effect for EMT
Collagen Type 1; versus Vehicle administration group, p<0.05
  Stained volume of Collagen Type 1: significantly decreases
